According to patent US9045493B2, “Furo[3,2-b]- and thieno[3,2-b]pyridin derivatives” (Merck Patent GmbH, priority 2012, dated 2015):

Legend:
[1] = target: T1, TANK binding kinase (TBK1) (Homo sapiens, UniProt Q9UHD2); experiment: TBK1 enzyme assay (384-well Flashplate kinase assay); format: biochemical; conditions: 10 μM ATP, 120 Min at 30° C.
T1 sequence (Q9UHD2 1-729): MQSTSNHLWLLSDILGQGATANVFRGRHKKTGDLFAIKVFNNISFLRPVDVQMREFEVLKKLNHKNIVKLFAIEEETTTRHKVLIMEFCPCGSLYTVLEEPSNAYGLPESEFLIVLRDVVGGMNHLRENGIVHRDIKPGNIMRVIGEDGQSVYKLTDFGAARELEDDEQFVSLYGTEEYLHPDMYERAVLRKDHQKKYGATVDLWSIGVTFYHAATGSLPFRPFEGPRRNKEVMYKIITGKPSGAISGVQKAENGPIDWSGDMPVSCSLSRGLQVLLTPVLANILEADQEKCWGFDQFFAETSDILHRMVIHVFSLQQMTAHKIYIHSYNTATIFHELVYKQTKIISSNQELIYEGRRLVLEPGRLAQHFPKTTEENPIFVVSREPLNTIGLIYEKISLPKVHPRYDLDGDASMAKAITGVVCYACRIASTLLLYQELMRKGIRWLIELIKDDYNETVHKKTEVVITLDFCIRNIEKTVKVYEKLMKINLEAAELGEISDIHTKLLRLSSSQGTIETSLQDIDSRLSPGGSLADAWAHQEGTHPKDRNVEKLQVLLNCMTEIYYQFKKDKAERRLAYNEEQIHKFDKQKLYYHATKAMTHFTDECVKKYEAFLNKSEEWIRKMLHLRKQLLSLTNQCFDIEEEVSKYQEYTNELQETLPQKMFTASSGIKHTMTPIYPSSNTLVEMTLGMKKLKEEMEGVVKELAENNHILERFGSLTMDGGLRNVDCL
Experimental: The kinase assay is performed as 384-well Flashplate assay (for e.g. Topcount measurement.
0.6 nM TANK binding kinase (TBK1), 800 nM biotinylated MELK-derived peptide (Biotin-Ah-Ah-[…]) and 10 μM ATP (spiked with 0.25 μCi ^33P-ATP/well) are incubated in a total volume of 50 μl (10 mM MOPS, 10 mM Mg-acetat, 0.1 mM EGTA, 1 mM DTT, 0.02% Brij35, 0.1% BSA, pH 7.5) with or without test compound for 120 Min at 30° C. The reaction is stopped with 25 μl 200 mM EDTA. After 30 Min at room temperature the liquid is removed and each well washed thrice with 100 μl 0.9% sodium chloride solution. Nonspecific reaction is determined in presence of 100 nM Staurosporine. Radioactivity is measured in a Topcount (PerkinElmer). Results (e.g. IC50-values) are calculated with program tools provided by the IT-department (e.g. AssayExplorer, Symyx).

IKKε = target: T2, IKKε (Homo sapiens, UniProt Q14164); experiment: IKKε kinase assay (384-well Flashplate); format: biochemical; conditions: 10 μM ATP, 2 hours at 30° C.; read-out: IKKε enzyme assay IC50
T2 sequence (Q14164 1-716): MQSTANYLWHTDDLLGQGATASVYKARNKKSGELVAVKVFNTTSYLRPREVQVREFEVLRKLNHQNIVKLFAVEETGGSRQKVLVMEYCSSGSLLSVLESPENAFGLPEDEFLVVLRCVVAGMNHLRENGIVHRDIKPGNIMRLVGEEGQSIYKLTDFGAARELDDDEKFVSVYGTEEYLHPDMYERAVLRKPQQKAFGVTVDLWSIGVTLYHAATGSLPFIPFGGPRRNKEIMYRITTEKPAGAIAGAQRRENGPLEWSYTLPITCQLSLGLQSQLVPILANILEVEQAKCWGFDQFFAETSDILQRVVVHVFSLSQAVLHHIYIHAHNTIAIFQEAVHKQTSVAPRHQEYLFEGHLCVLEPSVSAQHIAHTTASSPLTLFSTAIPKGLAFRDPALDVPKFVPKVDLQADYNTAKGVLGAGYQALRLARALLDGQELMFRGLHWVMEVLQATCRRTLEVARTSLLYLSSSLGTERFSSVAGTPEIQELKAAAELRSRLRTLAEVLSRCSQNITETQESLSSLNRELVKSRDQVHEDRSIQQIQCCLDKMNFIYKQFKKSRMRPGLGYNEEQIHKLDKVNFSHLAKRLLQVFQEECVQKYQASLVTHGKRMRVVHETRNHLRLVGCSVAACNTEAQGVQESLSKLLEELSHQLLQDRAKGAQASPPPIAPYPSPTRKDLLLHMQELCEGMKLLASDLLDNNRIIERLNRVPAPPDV
Experimental: The kinase assay is performed either as 384-well Flashplate assay (for e.g. Topcount measurement).
1 nM IKKε, 800 nM biotinylated IκBα(19-42) peptide (Biotin-C6-C6-[…]) and 10 μM ATP (spiked with 0.3 μCi ^33P-ATP/well) are incubated in a total volume of 50 μl (10 mM MOPS, 10 mM Mg-acetat, 0.1 mM EGTA, 1 mM Dithiothreitol, 0.02% Brij35, 0.1% BSA, 0.1% BioStab, pH 7.5) with or without test compound for 2 hours at 30° C. The reaction is stopped with 25 μl 200 mM EDTA. After 30 Min at room temperature the liquid is removed and each well washed thrice with 100 μl 0.9% sodium chloride solution. […] Radioactivity is measured with Topcount (PerkinElmer). Results (e.g. IC50-values) are calculated with program tools provided by the IT-department (e.g. AssayExplorer, Symyx).

SMILES	IC50 [1]	IC50 (IKKε)
CCN(C)C(=O)c1ccc(-c2cc3nccc(-c4ccc(OC5CCOCC5)c(C#N)c4)c3o2)cc1 [Compound A24, 4-{7-[3-cyano-4-(tetrahydro-pyran-4-yloxy)-phenyl]-furo[3,2-b]pyridin-2-yl}-N-ethyl-N-methyl-benzamide]	< 300 nM	< 300 nM
CN(CCO)C(=O)c1ccc(-c2cc3nccc(-c4ccc(OC5CCOCC5)c(C#N)c4)c3o2)cc1 [Compound A25, 4-{7-[3-cyano-4-(tetrahydro-pyran-4-yloxy)-phenyl]-furo[3,2-b]pyridin-2-yl}-N-(2-hydroxy-ethyl)-N-methyl-benzamide]	< 300 nM	< 300 nM
COCCN(C)C(=O)c1ccc(-c2cc3nccc(-c4ccc(OC5CCOCC5)c(C#N)c4)c3o2)cc1 [Compound A26, 4-{7-[3-cyano-4-(tetrahydro-pyran-4-yloxy)-phenyl]-furo[3,2-b]pyridin-2-yl}-N-(2-methoxy-ethyl)-N-methyl-benzamide]	< 300 nM	< 300 nM
CCN(CCOC)C(=O)c1cccc(-c2cc3nccc(-c4ccc(OC5CCOCC5)c(C#N)c4)c3o2)c1 [Compound A26a, 3-{7-[3-cyano-4-(tetrahydro-pyran-4-yloxy)-phenyl]-furo[3,2-b]pyridin-2-yl}-N-ethyl-N-(2-methoxy-ethyl)-benzamide]	300 to 3000 nM	300 to 3000 nM
CN(C)CCNC(=O)c1ccc(-c2cc3nccc(-c4ccc(OC5CCOCC5)c(C#N)c4)c3o2)cc1 [Compound A27, 4-{7-[3-cyano-4-(tetrahydro-pyran-4-yloxy)-phenyl]-furo[3,2-b]pyridin-2-yl}-N-(2-dimethylamino-ethyl)-benzamide]	< 300 nM	< 300 nM
CN(C)CCN(C)C(=O)c1ccc(-c2cc3nccc(-c4ccc(OC5CCOCC5)c(C#N)c4)c3o2)cc1 [Compound A28, 4-{7-[3-cyano-4-(tetrahydro-pyran-4-yloxy)-phenyl]-furo[3,2-b]pyridin-2-yl}-N-(2-dimethylamino-ethyl)-N-methyl-benzamide]	< 300 nM	< 300 nM
COc1cc(-c2cc3nccc(-c4ccc(OC5CCOCC5)c(C#N)c4)c3o2)ccc1C(=O)N1CC2(COC2)C1 [Compound A30, 5-{2-[3-methoxy-4-(2-oxa-6-aza-spiro[3.3]heptane-6-carbonyl)-phenyl]-furo[3,2-b]pyridin-7-yl}-2-(tetrahydro-pyran-4-yloxy)-benzonitrile]	< 300 nM	< 300 nM
CCN(CCN(C)C)C(=O)c1ccc(-c2cc3nccc(-c4ccc(OC5CCOCC5)c(C#N)c4)c3o2)cc1OC [Compound A31, 4-{7-[3-cyano-4-(tetrahydro-pyran-4-yloxy)-phenyl]-furo[3,2-b]pyridin-2-yl}-N-(2-dimethylamino-ethyl)-N-ethyl-2-methoxy-benzamide]	< 300 nM	< 300 nM
COc1cc(-c2cc3nccc(-c4ccc(OC5CCOCC5)c(C#N)c4)c3o2)ccc1C(=O)NCCN(C)C [Compound A32, 4-{7-[3-cyano-4-(tetrahydro-pyran-4-yloxy)-phenyl]-furo[3,2-b]pyridin-2-yl}-N-(2-dimethylamino-ethyl)-2-methoxy-benzamide]	< 300 nM	< 300 nM
N#Cc1cc(-c2ccnc3cc(-c4ccc(C(=O)NCCO)cc4)oc23)ccc1OC1CCOCC1 [Compound A33, 4-{7-[3-cyano-4-(tetrahydro-pyran-4-yloxy)-phenyl]-furo[3,2-b]pyridin-2-yl}-N-(2-hydroxy-ethyl)-benzamide]	< 300 nM	< 300 nM
N#Cc1cc(-c2ccnc3cc(-c4ccc(C(=O)N5CCNCC5)cc4)oc23)ccc1OC1CCOCC1 [Compound A34, 5-{2-[4-(piperazine-1-carbonyl)-phenyl]-furo[3,2-b]pyridin-7-yl}-2-(tetrahydro-pyran-4-yloxy)-benzonitrile]	< 300 nM	< 300 nM
COc1cc(-c2cc3nccc(-c4ccc(OC5CCOCC5)c(C#N)c4)c3o2)ccc1C(=O)N1CCNCC1 [Compound A35, 5-{2-[3-methoxy-4-(piperazin-1-carbonyl)-phenyl]-furo[3,2-b]pyridin-7-yl}-2-(tetrahydro-pyran-4-yloxy)-benzonitrile]	< 300 nM	< 300 nM
N#Cc1cc(-c2ccnc3cc(-c4cnn(C5CCNCC5)c4)oc23)ccc1OC1CCOCC1 [Compound A36, 4-(4-{7-[3-Cyano-4-(tetrahydro-pyran-4-yloxy)-phenyl]-furo[3,2-b]pyridin-2-yl}-pyrazol-1-yl)-piperidin]	< 300 nM	< 300 nM
CN1CCN(C(=O)c2ccc(-c3cc4nccc(-c5ccc(OCC6CCC6)c(C#N)c5)c4o3)cc2)CC1 [Compound A37]	< 300 nM	< 300 nM
N#Cc1cc(-c2ccnc3cc(-c4ccc(C(=O)N5CCNCC5)cc4)oc23)ccc1OCC1CCC1 [Compound A38]	< 300 nM	< 300 nM
CN1CCN(C(=O)c2ccc(-c3cc4nccc(-c5ccc(OCC6CC6)c(C#N)c5)c4o3)cc2)CC1 [Compound A39]	< 300 nM	< 300 nM
N#Cc1cc(-c2ccnc3cc(-c4ccc(C(=O)N5CCNCC5)cc4)oc23)ccc1OCC1CC1 [Compound A40]	< 300 nM	< 300 nM
CN(CCO)C(=O)c1ccc(-c2cc3nccc(-c4ccc(OCC5CC5)c(C#N)c4)c3o2)cc1 [Compound A41]	< 300 nM	< 300 nM
CN1CCN(C(=O)c2ccc(-c3cc4nccc(-c5ccc(OC6CCOC6)c(C#N)c5)c4o3)cc2)CC1 (stereo not shown) [Compound A42]	< 300 nM	< 300 nM
N#Cc1cc(-c2ccnc3cc(-c4ccc(C(=O)N5CCNCC5)cc4)oc23)ccc1OC1CCOC1 (stereo not shown) [Compound A43]	< 300 nM	< 300 nM
CN(CCO)C(=O)c1ccc(-c2cc3nccc(-c4ccc(OC5CCOCC5)c(C#N)c4)c3s2)cc1 [Compound A44]	< 300 nM	< 300 nM
CN1CCN(C(=O)c2ccc(-c3cc4nccc(-c5ccc(OC6CCOCC6)c(C#N)c5)c4s3)cc2)CC1 [Compound A45]	< 300 nM	< 300 nM
Cn1cc(-c2cc3nccc(-c4ccc(OC5CCOCC5)c(C#N)c4)c3o2)cn1 [Compound A46]	< 300 nM	< 300 nM
N#Cc1cc(-c2ccnc3cc(-c4ccc(CN5CCOCC5)s4)oc23)ccc1OC1CCOCC1 [Compound A47]	< 300 nM	< 300 nM
N#Cc1cc(-c2ccnc3cc(-c4cnn(CCN5CCOCC5)c4)oc23)ccc1OC1CCOCC1 [Compound A48]	< 300 nM	< 300 nM
Cc1ccc(-c2cc3nccc(-c4ccc(OC5CCOCC5)c(C#N)c4)c3o2)o1 [Compound A49]	< 300 nM	< 300 nM
